Data: patent publication US3960877A, “N-monosubstituted-2,3-pyridinedicarboxamides, and related compounds” (priority 1974, dated 1976)

How the values were obtained:
Format in all cases: in vivo
[1] = tested on: Wild Oats; assay: Preemergence herbicidal activity, % control of plant growth; conditions: Avena fatua, pre-emergence, 504 h, 16 lb/acre, about 3 weeks
Text: (§1) By "preemergence" is meant that the compound is applied to the soil prior to emergence of the weed species sought to be controlled. This term, as used herein, also means the application of the herbicidal compounds falling within the scope of this disclosure to areas wherein useful or desirable plants are either growing or have been sown, but where the undesirable plants sought to be controlled have not as yet emerged.
(§2) In using the compound, seeds of the types of plants set forth in Table II were sown in fresh soil. In the preemergence test the soil was sprayed with a solution of the test compound immediately after the seeds were planted, and before any noticeable growth developed. The solution was about a 2 percent by weight solution of the compound in acetone and/or alcohol. The compound was applied at the rate of 16 pounds per acre of soil surface.
(§3) Approximately 3 weeks after spray application, the herbicidal activity of the compound was determined by visual observation of the treated area in comparison with untreated control areas. These observations are reported below in Table II wherein the average activity rating is reported as the percent control of plant growth.
(§4) *Preemergence test: compound applied at rate of 16 lb/acre

[2] = tested on: Corn; assay: as above; conditions: Zea mays, pre-emergence, 504 h, 16 lb/acre, about 3 weeks
Text: as §1, §2, §3, §4

[3] = tested on: Johnsongrass; assay: as above; conditions: Sorghum halepense, pre-emergence, 504 h, 16 lb/acre, about 3 weeks
Text: as §1, §2, §3, §4

[4] = tested on: Pigweed; assay: as above; conditions: Amaranthus retroflexus, pre-emergence, 504 h, 16 lb/acre, about 3 weeks
Text: as §1, §2, §3, §4

[5] = tested on: Alfalfa; assay: as above; conditions: Medicago sativa, pre-emergence, 504 h, 16 lb/acre, about 3 weeks
Text: as §1, §2, §3, §4

[6] = tested on: Chickweed; assay: as above; conditions: pre-emergence, 504 h, 16 lb/acre, about 3 weeks
Text: as §1, §2, §3, §4

[7] = tested on: Barnyard Grass; assay: as above; conditions: Echinochloa crus-galli, pre-emergence, 504 h; barnyard grass; 16 lb/acre; about 3 weeks
Text: as §1, §2, §3, §4

[8] = tested on: Yellow Rocket; assay: as above; conditions: pre-emergence, 504 h, 16 lb/acre, about 3 weeks
Text: as §1, §2, §3, §4

[9] = tested on: Velvetleaf; assay: as above; conditions: Abutilon theophrasti, pre-emergence, 504 h, 16 lb/acre, about 3 weeks
Text: as §1, §2, §3, §4

[10] = tested on: Cheatgrass; assay: as above; conditions: Bromus tectorum, pre-emergence, 504 h, 16 lb/acre, about 3 weeks
Text: as §1, §2, §3, §4

[11] = tested on: Snapbeans; assay: as above; conditions: pre-emergence, 504 h, 16 lb/acre, about 3 weeks
Text: as §1, §2, §3, §4

[12] = tested on: Cucumber; assay: as above; conditions: Cucumis sativus, pre-emergence, 504 h, 16 lb/acre, about 3 weeks
Text: as §1, §2, §3, §4

[13] = tested on: Curled Dock; assay: as above; conditions: pre-emergence, 504 h, 16 lb/acre, about 3 weeks
Text: as §1, §2, §3, §4

[14] = tested on: Crabgrass; assay: as above; conditions: Digitaria sanguinalis, pre-emergence, 504 h, 16 lb/acre, about 3 weeks
Text: as §1, §2, §3, §4

[15] = tested on: Nutgrass; assay: as above; conditions: pre-emergence, 504 h, 16 lb/acre, about 3 weeks
Text: as §1, §2, §3, §4

[16] = tested on: Foxtail; assay: as above; conditions: Setaria, pre-emergence, 504 h, 16 lb/acre, about 3 weeks
Text: as §1, §2, §3, §4

[17] = tested on: Lambsquarters; assay: as above; conditions: Chenopodium album, pre-emergence, 504 h, 16 lb/acre, about 3 weeks
Text: as §1, §2, §3, §4

[18] = tested on: Wild Oats; assay: Postemergence herbicidal activity, % control of plant growth; conditions: Avena fatua, post-emergence, 264 h, 8 lb/acre, about 11 days
Text: (§5) By the term "postemergence" is meant that the compound is applied to the plant sought to be controlled after it has emerged from the soil surface. This term is also used to describe the application of herbicidally active compounds to soil surface in and around growing plants sought to be controlled for purposes of effecting root absorption by the undesirable plant species.
(§6) In the postemergence test the soil and developing plants were sprayed approximately 2 weeks after the seeds were sown. The compound was applied at the rate of 8 pounds per acre from about a 2 percent by weight solution of the test compound in acetone and/or alcohol. The postemergence herbicidal activity was measured in the same way as the preemergence activity; i.e. visual observation approximately 11 days after spraying, and expressed as the percent control of plant growth.
(§7) **Postemergence test: compound applied at rate of 8 lb/acre

[19] = tested on: Corn; assay: as above; conditions: Zea mays, post-emergence, 264 h, 8 lb/acre, about 11 days
Text: as §5, §6, §7

[20] = tested on: Johnsongrass; assay: as above; conditions: Sorghum halepense, post-emergence, 264 h, 8 lb/acre, about 11 days
Text: as §5, §6, §7

[21] = tested on: Pigweed; assay: as above; conditions: Amaranthus retroflexus, post-emergence, 264 h, 8 lb/acre, about 11 days
Text: as §5, §6, §7

[22] = tested on: Alfalfa; assay: as above; conditions: Medicago sativa, post-emergence, 264 h, 8 lb/acre, about 11 days
Text: as §5, §6, §7

[23] = tested on: Chickweed; assay: as above; conditions: post-emergence, 264 h, 8 lb/acre, about 11 days
Text: as §5, §6, §7

[24] = tested on: Barnyard Grass; assay: as above; conditions: Echinochloa crus-galli, post-emergence, 264 h, 8 lb/acre, about 11 days
Text: as §5, §6, §7

[25] = tested on: Yellow Rocket; assay: as above; conditions: post-emergence, 264 h, 8 lb/acre, about 11 days
Text: as §5, §6, §7

[26] = tested on: Velvetleaf; assay: as above; conditions: Abutilon theophrasti, post-emergence, 264 h, 8 lb/acre, about 11 days
Text: as §5, §6, §7

[27] = tested on: Cheatgrass; assay: as above; conditions: Bromus tectorum, post-emergence, 264 h, 8 lb/acre, about 11 days
Text: as §5, §6, §7

[28] = tested on: Snapbeans; assay: as above; conditions: post-emergence, 264 h, 8 lb/acre, about 11 days
Text: as §5, §6, §7

[29] = tested on: Cucumber; assay: as above; conditions: Cucumis sativus, post-emergence, 264 h, 8 lb/acre, about 11 days
Text: as §5, §6, §7

[30] = tested on: Curled Dock; assay: as above; conditions: post-emergence, 264 h, 8 lb/acre, about 11 days
Text: as §5, §6, §7

[31] = tested on: Crabgrass; assay: as above; conditions: Digitaria sanguinalis, post-emergence, 264 h, 8 lb/acre, about 11 days
Text: as §5, §6, §7

[32] = tested on: Nutgrass; assay: as above; conditions: post-emergence, 264 h, 8 lb/acre, about 11 days
Text: as §5, §6, §7

[33] = tested on: Foxtail; assay: as above; conditions: Setaria, post-emergence, 264 h, 8 lb/acre, about 11 days
Text: as §5, §6, §7

[34] = tested on: Lambsquarters; assay: as above; conditions: Chenopodium album, post-emergence, 264 h, 8 lb/acre, about 11 days
Text: as §5, §6, §7

CCCCC(CC)Cn1c(=O)[nH]c2cccnc2c1=O (stereo not shown) [3-(2-ethylhexyl)pyrido[3,2-d]pyrimidine-2,4(1H,3H)-dione]
30%: pest or weed control at 17933.6 g/ha [17]
20%: pest or weed control at 8966.8 g/ha [29]
50%: pest or weed control at 8966.8 g/ha [23]
90%: pest or weed control at 17933.6 g/ha [8] | pest or weed control at 8966.8 g/ha [25]
70%: pest or weed control at 17933.6 g/ha [6]
100%: pest or weed control at 8966.8 g/ha [21] | pest or weed control at 8966.8 g/ha [34]
10%: pest or weed control at 17933.6 g/ha [12] | pest or weed control at 17933.6 g/ha [14] | pest or weed control at 8966.8 g/ha [30] | pest or weed control at 8966.8 g/ha [31]
0%: pest or weed control at 17933.6 g/ha [1] | plant injury at 17933.6 g/ha [2] | pest or weed control at 17933.6 g/ha [3] | pest or weed control at 17933.6 g/ha [4] | pest or weed control at 17933.6 g/ha [5] | pest or weed control at 17933.6 g/ha [7] | pest or weed control at 17933.6 g/ha [9] | pest or weed control at 17933.6 g/ha [10] | pest or weed control at 17933.6 g/ha [11] | pest or weed control at 17933.6 g/ha [13] | pest or weed control at 17933.6 g/ha [15] | pest or weed control at 17933.6 g/ha [16] | pest or weed control at 8966.8 g/ha [18] | plant injury at 8966.8 g/ha [19] | pest or weed control at 8966.8 g/ha [20] | pest or weed control at 8966.8 g/ha [22] | pest or weed control at 8966.8 g/ha [24] | pest or weed control at 8966.8 g/ha [26] | pest or weed control at 8966.8 g/ha [27] | pest or weed control at 8966.8 g/ha [28] | pest or weed control at 8966.8 g/ha [32] | pest or weed control at 8966.8 g/ha [33]
